Data reported in paper PMC6858373 (Scientific Reports, 2019).
Read-outs that look alike come from different tables or passages of the source.

Experiments:
[1] = molecular target: T1, FGF14:Nav1.6 C-tail complex (Homo sapiens, UniProt Q92915+Q9UQD0); assay: Split-luciferase complementation assay (LCA) in Clone V double stable HEK293 cells; type: cell-based
T1 construct: polymerase chain reaction (PCR) amplification of the FGF14 open reading frame (nt 1–855); C-terminal fragment of Nav1.6 (amino acids 1763–1976) fused with CD4ΔC-tail (amino acids 1–395); expressed in transfected cells

[2] = tested on: Clone V cells
[3] = molecular target: full-length P. pyralis luciferase (Photinus pyralis, UniProt P08659, K549A/L550V/N119G/N50D/S548I); type: cell-based; settings: for Luciferase Assay % Lum: full-length luciferase counter-screen luminescence
[4] = CC_NCI screening, LCA luminescence, biological replicate Set 1, normalized to on-plate 0.3% DMSO controls (n=16 per plate)
[5] = CC_NCI screening, LCA luminescence, biological replicate Set 2, normalized to on-plate 0.3% DMSO controls (n=16 per plate)
[6] = CC_NCI screening, LCA, biological replicate Set 1, normalized to on-plate 0.3% DMSO controls
[7] = CC_NCI screening, LCA, biological replicate Set 2, normalized to on-plate 0.3% DMSO controls
[8] = CC_NCI screening, average of Set 1 and Set 2, normalized to 0.3% DMSO controls
[9] = CC_NCI screening, normalized to on-plate 0.3% DMSO controls
[10] = CC_NCI screening, full-length luciferase counter-screen, normalized to on-plate 0.3% DMSO controls

T1 sequence (Q92915 1-252 isoform Q92915-2): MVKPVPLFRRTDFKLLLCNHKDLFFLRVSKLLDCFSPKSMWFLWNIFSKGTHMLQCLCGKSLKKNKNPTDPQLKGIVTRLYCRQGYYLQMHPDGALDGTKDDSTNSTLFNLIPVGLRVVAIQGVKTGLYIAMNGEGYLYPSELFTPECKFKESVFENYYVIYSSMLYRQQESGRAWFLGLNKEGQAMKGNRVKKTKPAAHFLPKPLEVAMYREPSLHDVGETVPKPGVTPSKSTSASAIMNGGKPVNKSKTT
T1 sequence (Q9UQD0 1763-1976 limits assumed): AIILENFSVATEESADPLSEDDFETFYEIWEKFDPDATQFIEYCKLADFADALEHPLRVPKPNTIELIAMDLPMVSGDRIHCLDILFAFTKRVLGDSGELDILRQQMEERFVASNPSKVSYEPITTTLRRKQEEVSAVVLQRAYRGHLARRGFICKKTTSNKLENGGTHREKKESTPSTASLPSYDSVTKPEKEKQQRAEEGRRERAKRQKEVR
full-length P. pyralis luciferase, sequence (P08659 whole entry N50D/N119G/S548I/K549A/L550V, looked up): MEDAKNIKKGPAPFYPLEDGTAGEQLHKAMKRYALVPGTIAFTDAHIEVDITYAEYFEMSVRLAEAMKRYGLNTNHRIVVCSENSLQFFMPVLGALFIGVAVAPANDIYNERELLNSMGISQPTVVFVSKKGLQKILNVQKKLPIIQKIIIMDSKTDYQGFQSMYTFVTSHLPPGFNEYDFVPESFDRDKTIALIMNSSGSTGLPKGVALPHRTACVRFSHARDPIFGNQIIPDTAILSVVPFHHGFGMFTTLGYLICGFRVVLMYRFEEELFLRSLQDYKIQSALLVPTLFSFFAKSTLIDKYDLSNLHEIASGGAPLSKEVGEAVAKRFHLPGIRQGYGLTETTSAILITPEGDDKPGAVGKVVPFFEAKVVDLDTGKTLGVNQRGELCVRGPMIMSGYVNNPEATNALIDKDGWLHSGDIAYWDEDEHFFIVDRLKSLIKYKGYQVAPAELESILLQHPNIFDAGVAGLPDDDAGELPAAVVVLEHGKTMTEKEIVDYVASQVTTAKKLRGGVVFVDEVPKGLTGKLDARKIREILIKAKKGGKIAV

Row | SMILES | Split Luciferase Assay % Lum Set 1 [1, 4] [%] | Split Luciferase Assay %Lum Set 2 [1, 5] [%] | Split Luciferase Assay Z-score Set 1 [1, 6] | Split Luciferase Assay Z-score Set 2 [1, 7] | Split Luciferase Assay %Lum Avg [1, 8] [%] | Luciferase Assay % Lum [3, 9] [%] | Luciferase Assay Z-score [3, 10] | Toxicity Assay % Fluor ([2]; human, 16 h, 30 µM) [%] | Toxicity Assay Z-score ([2]; human, 16 h, 30 µM) | other results
1 | CC(C)C[C@H](NC(=O)[C@H](Cc1ccccc1)NC(=O)c1cnccn1)B(O)O [Bortezomib] | 89.47 | 117.56 | -0.85 | 1.43 | 103.51 | 83.42 | -2.12 | – | – | Toxicity Assay % Fluor [2]: 93.30%; Toxicity Assay Z-score [2]: -0.94
2 | COc1cc(Nc2c(C#N)cnc3cc(OCCCN4CCN(C)CC4)c(OC)cc23)c(Cl)cc1Cl [Bosutinib] | 10.11 | 17.69 | -7.26 | -6.70 | 13.90 | 70.20 | -3.82 | – | – | Toxicity Assay % Fluor [2]: 75.29%; Toxicity Assay Z-score [2]: -3.45
3 | Cc1cc2c(F)c(Oc3ncnn4cc(OC[C@@H](C)O)c(C)c34)ccc2[nH]1 [Brivanib] | 34.03 | 35.37 | -5.33 | -5.26 | 34.70 | 64.23 | -4.58 | 92.51 | -1.05 | –
4 | C=CC(=O)Nc1cc2c(Nc3ccc(F)c(Cl)c3)ncnc2cc1OCCCN1CCOCC1 [CANERTINIB] | 28.59 | 34.33 | -5.77 | -5.34 | 31.46 | 50.65 | -6.32 | 84.09 | -2.22 | –
5 | COc1cc2c(Oc3ccc4[nH]c(C)cc4c3F)ncnc2cc1OCCCN1CCCC1 [CEDIRANIB] | 69.90 | 57.22 | -2.43 | -3.48 | 63.56 | 80.88 | -2.45 | 86.10 | -1.94 | –
6 | CN1CCN(c2ccc3nc(-c4c(N)c5c(F)cccc5[nH]c4=O)[nH]c3c2)CC1 [CHIR 258] | 66.64 | 66.58 | -2.70 | -2.72 | 66.61 | 93.31 | -0.86 | 81.15 | -2.64 | –
7 | c1cc(-c2cnn3cc(-c4ccc(OCCN5CCCCC5)cc4)cnc23)ccn1 [COMPOUND C] | – | – | – | – | – | – | – | – | – | Split Luciferase Assay Z-score Set 1 ([1]; CC_NCI screening, biological replicate Set 1, normalized to on-plate 0.3% DMSO controls): 3.01; Split Luciferase Assay Z-score Set 2 ([1]; CC_NCI screening, biological replicate Set 2, normalized to on-plate 0.3% DMSO controls): 1.26; Split Luciferase Assay %Lum Set 2 ([1]; CC_NCI screening, biological replicate Set 2, normalized to on-plate 0.3% DMSO controls (n=16 per plate)): 115.47%; Split Luciferase Assay %Lum Avg ([1]; average of Set 1 and Set 2, normalized to 0.3% DMSO controls): 126.39%; Toxicity Assay % Fluor (CTB cell viability fluorescence) [2]: 115.42%; Toxicity Assay Z-score (CTB cell viability) [2]: 2.16; Luciferase Assay % Lum (full-length luciferase counter-screen) [3, 9]: 104.57%; Luciferase Assay Z-score (full-length luciferase counter-screen) [3, 9]: 0.59
8 | CC1=C2C[C@H]3[C@@H](CC=C4C[C@@H](O)CC[C@@]43C)[C@@H]2CC[C@]12O[C@@H]1C[C@H](C)CN[C@H]1[C@H]2C [CYCLOPAMINE] | – | – | – | – | – | – | – | – | – | Split Luciferase Assay % Lum Set 1 [1]: 141.65%; Split Luciferase Assay %Lum Avg [1]: 122.84%; Split Luciferase Assay %Lum Set 2 [1]: 104.03%; Split Luciferase Assay Z-score Set 1 [1]: 3.37; Split Luciferase Assay Z-score Set 2 [1]: 0.33; Toxicity Assay % Fluor ([2]; human): 85.59%; Toxicity Assay Z-score ([2]; human): -2.01; Luciferase Assay Z-score [3]: 0.81
